Laboratory results taken from patent US7981922B2, “Angiotensin I-converting enzyme (ACE) inhibitors” (University of Cape Town, priority 2005, dated 2011).

What was measured:
ACE C-domain = settings: C-domain versus N-domain of ACE; cited from earlier work
tACEdelta36NJ = tACEdelta36NJ (Homo sapiens, UniProt P12821); assay: ACE inhibitory activity, fluorometric determination of His-Leu, tACE; assay type: biochemical; settings: for C domain-selectivity: C domain (tACE) versus N domain; for Ki: substrate Z-Phe-His-Leu, enzyme + inhibitor 3 hours at ambient temperature, read-out: Ki (tACE) ZPHL
Protocol: (§1) The ACE inhibitory activity (as tabulated in Table 1) was measured by the fluorometric determination of pthaldialdehyde-derivatised histidylleucine, a product of the enzyme reaction according to the method of Almquist et al.,^12 with some modifications. For tACEdelta36NJ and N-domain inhibition using Z-Phe-His-Leu as substrate: —10 μL of 0.05 mg/mL enzyme+120 μL inhibitor at ambient temperature for 3 hours. Inhibitor concentrations ranged from 2.0 μM to 500 μM. A 3.0 μL aliquot of this was assayed for enzyme activity using 30 μL of 1.0 mM […]. This was incubated (in triplicate) for 30 mins at 37° C. and stopped with 180 μL solution of 0.28N NaOH. To this alkalized mixture 12 μL of o-pthaldialdehyde (150 mM) was added and the mixture incubated for another 10 mins at room temperature. Reactions were stopped by adding 26 μL solution of 3N HCl. Fluorescence was measured at Ex=360 nm; Em=486 nm, 5×5 slit width along with a His-Leu standard calibration curve fluorometer: Varian Cary Eclipse plate reader.
(§2) All assays included enzyme incubated with buffer in the absence of inhibitor (i.e. 0 μM inhibitor concentration).

N-domain of ACE = N-domain of ACE (Homo sapiens, UniProt P12821); assay: ACE inhibitory activity, fluorometric determination of His-Leu, N-domain; assay type: biochemical; settings: substrate Z-Phe-His-Leu; no inhibition up to 500 μM; read-out: Ki (N-dom) ZPHL
Protocol: as §1, §2

Sequence of tACEdelta36NJ (P12821 642-1230 limits assumed): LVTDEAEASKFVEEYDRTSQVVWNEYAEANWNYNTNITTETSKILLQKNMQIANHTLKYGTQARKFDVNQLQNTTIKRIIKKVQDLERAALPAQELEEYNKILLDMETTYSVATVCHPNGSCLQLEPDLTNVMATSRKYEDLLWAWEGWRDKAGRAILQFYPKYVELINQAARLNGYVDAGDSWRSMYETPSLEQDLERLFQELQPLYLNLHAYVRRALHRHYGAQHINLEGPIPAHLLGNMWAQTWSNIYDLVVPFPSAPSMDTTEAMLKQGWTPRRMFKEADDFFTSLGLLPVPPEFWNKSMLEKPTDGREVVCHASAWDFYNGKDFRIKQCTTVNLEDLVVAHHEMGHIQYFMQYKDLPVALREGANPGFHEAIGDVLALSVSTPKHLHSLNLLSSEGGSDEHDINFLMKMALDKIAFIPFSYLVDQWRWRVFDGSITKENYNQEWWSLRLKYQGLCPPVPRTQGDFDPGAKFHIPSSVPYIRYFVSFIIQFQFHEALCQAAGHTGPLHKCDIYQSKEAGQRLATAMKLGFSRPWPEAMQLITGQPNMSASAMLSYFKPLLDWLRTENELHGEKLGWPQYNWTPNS
Sequence of N-domain of ACE (P12821 40-624 limits assumed): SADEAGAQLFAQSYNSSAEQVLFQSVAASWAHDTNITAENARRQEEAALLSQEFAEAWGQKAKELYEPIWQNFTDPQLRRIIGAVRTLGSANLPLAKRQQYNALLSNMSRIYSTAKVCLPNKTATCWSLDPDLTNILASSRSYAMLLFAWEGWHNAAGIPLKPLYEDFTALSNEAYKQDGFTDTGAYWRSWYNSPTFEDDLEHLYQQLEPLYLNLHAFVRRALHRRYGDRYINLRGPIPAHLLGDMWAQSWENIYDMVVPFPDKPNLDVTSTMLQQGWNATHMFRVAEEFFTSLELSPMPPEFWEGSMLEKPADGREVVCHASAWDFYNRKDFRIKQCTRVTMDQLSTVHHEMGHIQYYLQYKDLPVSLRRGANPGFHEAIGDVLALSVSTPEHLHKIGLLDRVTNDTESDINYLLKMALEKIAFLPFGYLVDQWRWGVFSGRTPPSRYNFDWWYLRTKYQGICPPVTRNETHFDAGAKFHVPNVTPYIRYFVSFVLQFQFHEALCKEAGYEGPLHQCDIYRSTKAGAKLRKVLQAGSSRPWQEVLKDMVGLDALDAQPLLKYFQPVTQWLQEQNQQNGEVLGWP

C domain-selectivity (tACEdelta36NJ) | Ki (tACEdelta36NJ) | Ki (N-domain of ACE) | Structure (SMILES) | C-domain selective (ACE C-domain)
– | – | – | O=C(N[C@@H](Cc1ccccc1)P(=O)(O)C1CCCC1C(=O)N[C@@H](Cc1c[nH]c2ccccc12)C(=O)O)OCc1ccccc1 (stereo partly shown) [RXP A380] | ~3000 fold
> 19 fold | 26.3 µM | > 500 µM | NCCCC[C@H](N[C@@H](CCc1ccccc1)C(=O)O)C(=O)N[C@@H](Cc1c[nH]c2ccccc12)C(=O)O [Compound 6] | –
> 72 fold | 7 µM | > 500 µM | NCCCC[C@H](N[C@H](CCc1ccccc1)C(=O)O)C(=O)N[C@@H](Cc1c[nH]c2ccccc12)C(=O)O [Compound 6a] | –
